{"source": "PubChem BioAssay AID1259407", "about": "(Chemical Carcinogenesis Research Information System (CCRIS), 2018)", "system": "CCRIS mutagenicity, Ames/micronucleus/aberration tests", "assay": "CCRIS mutagenicity studies", "note": "The source made the active and inactive calls. How the calls were made is not given here."}
{"smiles": "CCN(CC)c1ccc(N)cc1", "values": [{"measurement": "mutagenic call", "setting": "End Point: IN VITRO CHROMOSOMAL ABERRATIONS, Test System: CHINESE HAMSTER LUNG CELLS (CHL), Metabolic Activation: RAT, LIVER, S-9, KC-400", "result": "inactive; negative"}, {"measurement": "mutagenic call", "setting": "End Point: IN VITRO CHROMOSOMAL ABERRATIONS, Test System: CHINESE HAMSTER OVARY CELLS (CHO), Metabolic Activation: NONE", "result": "active; positive (structural changes)"}, {"measurement": "mutagenic call", "setting": "End Point: IN VITRO CHROMOSOMAL ABERRATIONS, Test System: CHINESE HAMSTER OVARY CELLS (CHO), Metabolic Activation: RAT, LIVER, S-9, AROCLOR 1254", "result": "inactive; negative"}, {"measurement": "mutagenic call", "setting": "Test System: AMES SALMONELLA TYPHIMURIUM, Strain/Indicator: TA97, Metabolic Activation: HAMSTER, LIVER, S-9, AROCLOR 1254 (10%), Method: PREINCUBATION", "result": "active; positive"}, {"measurement": "mutagenic call", "setting": "Test System: AMES SALMONELLA TYPHIMURIUM, Strain/Indicator: TA97, Metabolic Activation: NONE, Method: PREINCUBATION", "result": "inactive; negative"}, {"measurement": "mutagenic call", "setting": "Test System: AMES SALMONELLA TYPHIMURIUM, Strain/Indicator: TA97, Metabolic Activation: RAT, LIVER, S-9, AROCLOR 1254 (10%), Method: PREINCUBATION", "result": "inactive; negative"}, {"measurement": "mutagenic call", "setting": "Test System: AMES SALMONELLA TYPHIMURIUM, Strain/Indicator: TA98, Metabolic Activation: HAMSTER, LIVER, S-9, AROCLOR 1254 (10%), Method: PREINCUBATION", "result": "active; positive"}, {"measurement": "mutagenic call", "setting": "Test System: AMES SALMONELLA TYPHIMURIUM, Strain/Indicator: TA98, Metabolic Activation: NONE, Method: PREINCUBATION", "result": "inactive; negative"}, {"measurement": "mutagenic call", "setting": "Test System: AMES SALMONELLA TYPHIMURIUM, Strain/Indicator: TA98, Metabolic Activation: RAT, LIVER, S-9, AROCLOR 1254 (10%), Method: PREINCUBATION", "result": "active; positive"}, {"measurement": "mutagenic call", "setting": "Test System: AMES SALMONELLA TYPHIMURIUM, Strain/Indicator: TA100, Metabolic Activation: HAMSTER, LIVER, S-9, AROCLOR 1254 (10%), Method: PREINCUBATION", "result": "active; positive"}, {"measurement": "mutagenic call", "setting": "Test System: AMES SALMONELLA TYPHIMURIUM, Strain/Indicator: TA100, Metabolic Activation: NONE, Method: PREINCUBATION", "result": "inactive; negative"}, {"measurement": "mutagenic call", "setting": "Test System: AMES SALMONELLA TYPHIMURIUM, Strain/Indicator: TA100, Metabolic Activation: RAT, LIVER, S-9, AROCLOR 1254 (30%), Method: PREINCUBATION", "result": "inactive; negative"}, {"measurement": "mutagenic call", "setting": "Test System: AMES SALMONELLA TYPHIMURIUM, Strain/Indicator: TA1535, Metabolic Activation: HAMSTER, LIVER, S-9, AROCLOR 1254 (10%), Method: PREINCUBATION", "result": "inactive; negative"}, {"measurement": "mutagenic call", "setting": "Test System: AMES SALMONELLA TYPHIMURIUM, Strain/Indicator: TA1535, Metabolic Activation: NONE, Method: PREINCUBATION", "result": "inactive; negative"}, {"measurement": "mutagenic call", "setting": "Test System: AMES SALMONELLA TYPHIMURIUM, Strain/Indicator: TA1535, Metabolic Activation: RAT, LIVER, S-9, AROCLOR 1254 (10%), Method: PREINCUBATION", "result": "inactive; negative"}]}
